For 91 compounds, melting point results are on record in a melting point compilation (Tetko et al.; mined from patent text by program, amines drawn as free bases though some values may be those of a salt).

By melting point is commonly meant the temperature, or range, at which the solid turns liquid.

As to `CC(C)(C)Nc1nccc(C#C[Si](C)(C)C)n1`, the melting point lay in the range of 71 to 73 °C.
In the case of `ClCCCCCOc1ccc(Br)c(CCOCc2ccccc2)c1`, the melting point was 54 to 55 °C.
The compound `COc1ccc(Cl)cc1C(=O)c1cc(C(F)(F)F)ccc1NC(=O)OC(C)(C)C` displayed a melting point of 148 to 150 °C.
As to `Cc1cccc(CCC(=O)c2ccccc2)c1NC(=O)CC1c2ccccc2Oc2ccccc21`, the melting point fell in the range of 175 to 176 °C.
In the case of `Cc1nnc(CNC(=O)CCl)n1-c1ccc(Cl)cc1C(=O)c1ccccc1` it was 140 to 141 °C; in that of `CC(=O)c1cnc(-c2ccccc2)c(-c2ccc(=O)n(C(C)C)n2)c1`, 207 to 208 °C.
In turn, `Cc1noc(NS(=O)(=O)c2ccsc2C(=O)NS(=O)(=O)c2cccc3c(N(C)C)cccc23)c1Br` came in with a melting point of 184 to 186 °C.
In the case of `N#Cc1ccc(COc2cccc(F)c2)cc1` it was 69 to 70 °C; in that of `CCCCCCCCC(=O)NCc1ccc(Oc2ccccc2[N+](=O)[O-])c(OC)c1`, 93 to 93.5 °C.
On to `COc1cccc(C(=O)c2sccc2Br)c1`, for which the melting point is 40 °C.
For `O=C(NCc1ccccc1OC(F)(F)F)[C@@H]1CCCN(c2cccc3c2C(=O)N(Cc2ccncc2)C3=O)C1`, the melting point was 197 to 198 °C.
The compound `CC(C)n1cc(-c2nc(C#N)c(N)nc2-c2ccccc2F)ccc1=O` showed a melting point of 211 °C.
The compound `CCCC(COS(C)(=O)=O)(OC(C)C)c1ccc(Cl)cc1Cl` (stereo unspecified) showed a melting point of 58 to 61 °C.
For the compound `Cc1cc(Oc2ncc(C(F)(F)F)cc2Cl)nn1C(=O)NC1CC1`, the melting point was 98 to 99 °C.
The compound `CC(=O)N1N=C(c2ccncc2)OC1c1c(F)cccc1F` (stereo unspecified) returned a melting point of 119 to 121 °C.
In turn, `CCOC(=O)C1=C(C)NC(c2sc(C)nc2C)=NC1c1ccc(F)cc1Cl` (stereo unspecified) registered a melting point of 117 to 119 °C.
For `CCOC(=O)c1cc(/C=C/c2ccc3ccccc3n2)cn1C`, the melting point lay in the range of 140 to 142 °C.
Compound `CCc1c(C)[nH]c2c1C(=S)C1CNCCC1C2` (stereo unspecified) returned a melting point of 190 to 194 °C.
The compound `FC(F)(F)c1nnnn1-c1ccc(C2=NOC(c3cc(Cl)cc(Cl)c3)(C(F)(F)F)C2)cc1` (stereo unspecified) showed a melting point of 147 to 151 °C.
In turn, `CC1(C)Oc2ccc(C(=O)CCC(=O)O)cc2NC1=O` showed a melting point of 226 to 228 °C.
For `CC(F)(F)S(=O)(=O)c1c(C(N)=S)nn(-c2c(Cl)cc(C(F)(F)F)cc2Cl)c1N`, the melting point lay in the range of 228 to 229 °C.
`COC(=O)CCc1cc2cc(C(=O)c3ccccc3)ccc2n1S(=O)(=O)c1ccccc1`: the melting point was in the range of 37 to 51 °C.
In the case of `c1ccc(COc2ccc(OCCN3CCN(c4ccccc4)CC3)cc2)cc1`, the melting point was 116 to 119 °C.
Take `O=C(O)[C@H]1Oc2ccc(Cl)cc2[C@@H](c2ccccc2)O1` (relative stereo): the melting point stood at 175 °C.
For `O=C(O)c1cn(Cc2csnn2)c2cc(F)c(F)cc2c1=O` the value was 257 to 261 °C; for `CC(C)Cn1c(CNC(=O)OC(C)(C)C)c(-c2ccc(Cl)cc2)c2cc(/C=C/C(=O)O)ccc2c1=O`, 147 to 149 °C; for `CCCCCCCCCCCCCCCCC[C@@H]1OC[C@@H](COC(=O)CCCCCOS(=O)(=O)c2ccc(C)cc2)O1` (relative stereo), 41.9 to 42.7 °C.
On to `c1ccc2c(OCCN3CCCCC3)c3ccccc3c(OCCN3CCCCC3)c2c1`, for which the melting point fell in the range of 103 to 106 °C.
The compound `COC(=O)CN(CC(COc1ccc(Cl)cc1)OC(C)=O)c1ccccc1` (stereo unspecified) displayed a melting point of 82 °C.
`CC(C)(CO)NC(=O)c1cc(F)c(F)cc1F` came in with a melting point of 114 to 116 °C.
In the case of `COC(=O)c1cc(S(N)(=O)=O)ccc1S(=O)(=O)CCCO` it was 124 to 126 °C; in that of `CNc1nc(Br)cc(Sc2ccccc2)n1`, 122 to 124 °C.
Consider `O=c1[nH]c2ccc(CCN3CCN(c4cccc5ccccc45)CC3)cc2o1`, for which the melting point was in the range of 282 to 285 °C.
In turn, `O=C(Cl)OCC1c2c(c3ccccc3c3ccccc23)-c2c1c1ccccc1c1ccccc21` gave a melting point of 188 to 189 °C.
With `O=C(O)c1cccc2c1CCC2Cl` (stereo unspecified), the melting point lay within 136 to 138 °C.
For `CC(=O)c1c(C)[nH]c(-c2ccncc2)c1-c1ccncc1`, the melting point lay in the range of 236 to 239 °C.
`Cc1cn2nc(-c3ccccc3)nc2cc1N` returned a melting point of more than 250 °C.
`COC[C@H](C)Oc1cc(N(C)S(=O)(=O)c2ccccn2)c2[nH]c(C3=NCC(CN4CCS(=O)CC4)S3)cc2c1` (stereo partly specified) showed a melting point of 175 to 176 °C.
For `Cc1nc(NC2CC2)ccc1N1CCCn2c1nc1c(Cl)ccc(C(OC(F)F)C(F)(F)F)c12` (stereo unspecified) the value was 168 to 170 °C; for `Cc1cc2c(c(O)c1O)C(=O)c1c(O)cccc1C2=O`, 239 to 240 °C; for `COc1cc(C=C(C#N)C(=O)Nc2ccccc2)cc(Cl)c1O`, 273 °C.
Consider `O=C(CCCCCBr)Nc1ccc(O)cc1F`, for which the melting point was 66 to 69 °C.
`NC1CCc2ccccc2N(CC(=O)OCc2ccccc2)C1=O` (stereo unspecified) showed a melting point of 105 to 107 °C.
`O=C(Nc1ccc(-n2nc(C(F)(F)F)cc2C2CC2)cc1)c1ccc2nccnc2c1`: the melting point was 205 to 209 °C.
The compound `CON=Cc1ncn2c1[C@@H]1CCCN1C(=O)c1c(Cl)cccc1-2` came in with a melting point of 194 to 195 °C.
As to `COC(=O)c1ccc2c(c1SCCCl)Cc1ccccc1CO2`, the melting point came out at 100 °C.
`CSC[C@H](C)NC(=O)c1c(I)cccc1C(=O)O` gave a melting point of 132 to 134 °C.
`COCc1c(C=C(Br)Br)ncc2c1c1c(OCc3ccccc3)cccc1n2S(=O)(=O)c1ccc(C)cc1` displayed a melting point of 149 to 152 °C.
For `C=C1C[C@@H](C(=O)O)[C@H](C(=O)O)C1` (relative stereo) the value was 178 to 179 °C.
`CCOc1nn(CCc2ccc(OCc3nc(-c4ccccc4)oc3C)cc2)cc1CCC(=O)O`: the melting point fell in the range of 110 to 111 °C.
`CC1(c2nn(-c3ccc(N)cc3Cl)c(=O)o2)CC1`: the melting point lay in the range of 195 to 196 °C.
With `COc1cc(OC)n2nc(NS(=O)(=O)c3c(Cl)cccc3Cl)nc2n1`, the melting point lay in the range of 211 to 213 °C.
`Cc1ccc(-c2cccnc2C#N)cc1` showed a melting point of 136 to 138 °C.
For `O=C1C2CCCC2=Nc2ccccc2N1Cc1ccc(F)cc1` (stereo unspecified) the value was 134 to 137 °C; for `O=c1cc(-c2ccncc2)nc2n1CC(O)CN2CCCc1ccccc1F` (stereo unspecified), 305 to 307 °C; for `O=C(O)C1CCCc2c(noc2-c2ccc(Cl)cc2)C1` (stereo unspecified), 231 to 233 °C.
`CCCCN1C(=O)CC(=O)N(C)c2ccccc21` returned a melting point of 141 to 143 °C.
Regarding `CCCCCCCCCCCCCCOc1ccc(C(=O)Nc2cccc(CBr)c2)cc1`, the melting point fell in the range of 116 to 118 °C.
`CS(=O)(=O)OCC1(COc2ccc(Br)cc2)COC1` displayed a melting point of 89 to 91 °C.
`O=C(Nc1ccccc1)Nc1nc2ccc(OC(=O)c3ccccc3)cc2s1` came in with a melting point of 245 to 249 °C.
In turn, `CCN1CC(=O)N(c2c(C(C)C)cccc2C(C)C)C1=S` showed a melting point of 159 to 161 °C.
The compound `CC(=S)NC[C@H]1CN(c2ccc(N3CCC(=C(C)C#N)CC3)c(F)c2)C(=O)O1` registered a melting point of 171 to 172 °C.
With `CC(=O)c1oc2ccc(C)cc2c1C`, the melting point was in the range of 66.3 to 66.5 °C.
Compound `NC(c1ccccc1)c1ccc(O)cc1` (stereo unspecified) returned a melting point of 113 to 115 °C.
Compound `O=P(c1ccccc1)(c1ccc(F)cc1)c1ccc(F)cc1` showed a melting point of 103 to 105 °C.
In the case of `Nc1ccc(C23CC(C2)C(=O)NC3=O)cc1`, the melting point amounted to 265 °C.
Consider `CCOc1cccc(C(=O)N2CCc3cc(O)ccc3C2)c1`, for which the melting point lay within 150 to 151 °C.
`COc1ccc(-c2nnc3c4ccccc4c(OCCO)nn23)cc1` showed a melting point of 252 to 254 °C.
`Cn1nc(-c2nc(C#Cc3ccccc3)c(N)nc2-c2ccccc2)ccc1=O` registered a melting point of 234 to 236 °C.
As to `CCCCC(CC)COC(=O)CSCc1cc(C(C)(C)C)c(O)c(C(C)(C)C)c1` (stereo unspecified), the melting point was determined as 20 °C.
On to `COc1ccc(CCC#N)cc1OC`, for which the melting point was in the range of 45 to 48 °C.
`CCCCCNC(=O)c1cnc(N2CCN(C(=O)c3ccccc3C(F)(F)F)CC2)s1` yielded a melting point of 92 to 94 °C.
Compound `CCc1cc(Cl)n2nccc2n1` returned a melting point of 66 to 68 °C.
In the case of `Oc1ccc2sc3ccccc3c2c1` it was 152 to 155 °C; in that of `CC(C)(O)C#Cc1cc(C(F)(F)F)cc(C(F)(F)F)c1`, 74.5 to 74.8 °C.
For `CC(C)CS(=O)(=O)c1ccnc(OS(C)(=O)=O)c1`, the melting point lay in the range of 75.5 to 76.5 °C.
As to `NCC1COc2ccc3[nH]c(=O)oc3c2O1` (stereo unspecified), the melting point was more than 250 °C.
In the case of `CCCCCCCCCCCCCCCCC(C)C(=S)OC` (stereo unspecified) it was 39 to 40 °C; in that of `Cc1sc(CO)c(C)c1Br`, 85 to 90 °C.
Compound `O=Cc1cc(C#Cc2ccccc2)c(C=O)cc1C#Cc1ccccc1` registered a melting point of 179 to 181 °C.
As for `CCCCCCCCCCN=C1SC(=CC(=O)O)C(=O)N1CCCCCCCCCC`, the melting point fell in the range of 68 to 69 °C.
For `COc1ccccc1Oc1coc(C(=O)O)cc1=O` the value was 202 to 203 °C.
`CC1(C)OC(c2cccc(S(C)(=O)=O)c2)=C(c2ccccc2)C1=O` gave a melting point of 190 to 191 °C.
Compound `CC(=O)OCCOCn1ccc2c(Cl)ncnc21` had a melting point of 67 to 88 °C.
With `CCN1C=C(C(=O)O)C(=O)CC1c1ccc2c(c1)OCO2` (stereo unspecified), the melting point lay in the range of 173 to 175 °C.
`Cc1ccc(C(=O)N2CC3CC2CN3c2nc(-c3ccncc3)cc(=O)n2C)cc1` (stereo unspecified) showed a melting point of 118 to 120 °C.
`CC(=O)OC1CSC(Oc2cncc(S(=O)(=O)c3ccc(F)cc3)c2)C(OC(C)=O)C1OC(C)=O` (stereo unspecified) yielded a melting point of 128 °C.
Regarding `CSc1ncccc1NC(=O)CCCCCCCCSc1nc2ccccc2o1`, the melting point was in the range of 84 to 85 °C.
As to `COC(=O)C(Cl)=NNc1ccc(F)cc1`, the melting point lay in the range of 110 to 113 °C.
As to `CC12CCC(=O)C(N=[N+]=[N-])=C1CCC1C2CCC2(C)C(OC3CC3)CCC12` (stereo unspecified), the melting point lay within 104 to 106 °C.
For `[N-]=[N+]=C1c2ccccc2-c2ccc(F)cc21`, the melting point fell in the range of 89 to 90 °C.
